Legend:
Type in all cases: cell-based, human
[1] = test system: collagen VII; experiment: Immunofluorescence of collagen VII in reconstructed skin sections
[2] = test system: tenascin; experiment: Immunofluorescence of tenascin in reconstructed skin sections
[3] = test system: fibroblasts in the lattice of reconstructed skin; experiment: Reconstructed skin grown with vitamin C in the culture medium: number of fibroblasts; conditions: vitamin C in culture medium throughout the phase of emersion
From the text: This increase is associated with a greater production of certain proteins of the extracellular matrix, in particular in the sub-epidermal zone. The most spectacular results are found in this region of the dermo-epidermal junction, with a more perpendicular arrangement of the basal keratinocytes and an increased synthesis of major components of the basal membrane, for instance tenascin and collagen VII.

[4] = reconstructed skin, vitamin CPMg 2.8′10^−4 M, 7-day emersion phase, × control

O=C1O[C@H]([C@@H](O)CO)C([O-])=C1OP(=O)([O-])[O-].O=C1O[C@H]([C@@H](O)CO)C([O-])=C1OP(=O)([O-])[O-].[Mg+2].[Mg+2].[Mg+2] [Vitamin C, magnesium ascorbyl phosphate]
Intensity and thickness of the zone of collagen VII fluorescence at the dermo-epidermal junction, versus sample without vitamin C ([1]; microscopic observation, FIG. 1): much greater
Collagen VII fluorescence intensity/unit of length ([1]; reconstructed skin, vitamin CPMg 2.8′10^−4 M during 7-day emersion phase, image analysis, normalized to identical length of dermo-epidermal junction, control 1.35): 2.50 arbitrary units
Collagen VII fluorescence intensity/unit of length, factor versus control [1, 4]: 1.85
Intensity and thickness of the zone of tenascin fluorescence (dermo-epidermal junction and superficial dermis), versus sample without vitamin C ([2]; microscopic observation, FIG. 2): much larger
Tenascin fluorescence intensity/unit of length ([2]; reconstructed skin, vitamin CPMg 2.8′10^−4 M during 7-day emersion phase, image analysis, standardized to identical length of dermo-epidermal junction, control 6.4): 11.54 arbitrary units
Tenascin fluorescence intensity/unit of length, factor versus control [2, 4]: 1.80
Number of fibroblasts in the lattice [3]: very large increase

Reference: US20040005342A1, “Topical administration of ascorbic acid to reinforce the cohesion of the dermo-epidermal junction” (SOCIETE L'OREAL S.A., priority 2002, published 2004)
